Source: US7723329B2, “Substituted-3-sulfonylindazole derivatives as 5-hydroxytryptamine-6 ligands” (Wyeth LLC, priority 2005, dated 2010)
Where a name gives a salt, the structure may show the parent alone.

How the values were obtained:
[1] = target: T1, human cloned 5-HT6 receptors (Homo sapiens, UniProt P50406); experiment: 5-HT6 binding affinity, [3H]-LSD displacement; conditions: membranes of Hela cells expressing human cloned 5-HT6 receptors; [3H]-LSD 3.0 nM; 120 minutes at room temperature
T1 construct: expressed in transfected cells; host or cells: HeLa cells
T1 sequence (P50406 whole entry): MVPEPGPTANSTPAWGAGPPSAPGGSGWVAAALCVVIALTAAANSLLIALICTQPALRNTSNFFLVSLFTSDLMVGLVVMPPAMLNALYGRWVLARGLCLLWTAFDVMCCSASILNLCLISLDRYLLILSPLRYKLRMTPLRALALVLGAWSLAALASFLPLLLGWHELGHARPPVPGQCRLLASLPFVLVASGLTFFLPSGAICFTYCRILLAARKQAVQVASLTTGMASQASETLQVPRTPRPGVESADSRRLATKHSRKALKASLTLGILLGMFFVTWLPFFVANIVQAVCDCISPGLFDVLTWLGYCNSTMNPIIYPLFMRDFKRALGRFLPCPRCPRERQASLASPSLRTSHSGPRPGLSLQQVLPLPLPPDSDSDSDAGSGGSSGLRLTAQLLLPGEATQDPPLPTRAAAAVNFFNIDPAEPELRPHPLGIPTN

Row | Structure (SMILES) | melting point | Ki [1]
1 | O=S(=O)(c1cccc2ccccc12)c1n[nH]c2ccc(CCCN3CCCC3)cc12 [Example 187] | 135 to 138 °C | 0.01 to 10 nM
2 | CCN(C)CCCc1ccc2[nH]nc(S(=O)(=O)c3cccc4ccccc34)c2c1 [Example 186] | 205 to 207 °C | 0.01 to 10 nM
3 | NCCCc1ccc2[nH]nc(S(=O)(=O)c3cccc4ccccc34)c2c1 [Example 188, {3-[3-(Naphthylylsulfonyl)-1H-indazol-5-yl]propyl}amine] | 92 to 94 °C | 0.01 to 10 nM
4 | CN(C)CCN(C)Cc1ccc2[nH]nc(S(=O)(=O)c3cccc4ccccc34)c2c1 (as salt: hydrochloride) [Example 153, N,N, N′-Trimethyl-N′-{[3-(1-naphthylsulfonyl)-1H-indazol-5-yl]methyl}ethane-1,2-diamine] | > 200 °C | 
5 | CN(C)CCOCc1ccc2[nH]nc(S(=O)(=O)c3cccc4ccccc34)c2c1 (as salt: HCl) [Example 156, N,N-Dimethyl-2-{[3-(1-naphthylsulfonyl)-1H-indazol-5-yl]methoxy}ethanamine] | > 200 °C | 
6 | CC(C)NCCCCc1ccc2[nH]nc(S(=O)(=O)c3cccc4ccccc34)c2c1 [Example 192] | 145 to 150 °C | 0.01 to 10 nM
7 | CC1CN(Cc2ccc3[nH]nc(S(=O)(=O)c4cccc5ccccc45)c3c2)CCN1 (stereo not shown) (as salt: HCl) [Example 197] | > 200 °C | 
8 | CNCCOc1ccc2c(c1)c(S(=O)(=O)c1cccc3ccccc13)nn2C (as salt: hydrochloride) [Example 40, Methyl-{2-[1-methyl-3-(naphthalene-1-sulfonyl)-1H-indazol-5-yloxy]-ethyl}-amine] | 272 to 274 °C (dec.) | 
9 | CC(C)NCCCc1ccc2[nH]nc(S(=O)(=O)c3cccc4ccccc34)c2c1 [Example 185] | 160 to 163 °C | 0.01 to 10 nM
10 | CC(C)NCCOc1ccc2c(c1)c(S(=O)(=O)c1cccc3ccccc13)nn2C (as salt: hydrochloride) [Example 45, Isopropyl-{2-[1-methyl-3-(naphthalene-1-sulfonyl)-1H-indazol-5-yloxy]-ethyl}-amine] | 274 to 276 °C (dec.) | 
11 | NCCCc1ccc2[nH]nc(S(=O)(=O)c3ccccc3)c2c1 (as salt: trifluoroacetate) [Example 180, {3-[3-(Phenylsulfonyl)-1H-indazol-5-yl]propyl}amine trifluoroacetate] | 92 to 94 °C | 
12 | O=S(=O)(c1ccccc1)c1n[nH]c2ccc(OCCNC3CC3)cc12 (as salt: hydrochloride) [Example 8, [2-(3-Benzenesulfonyl-1H-indazol-5-yloxy)-ethyl]-cyclopropyl-amine] | 184 to 185 °C (dec.) | 
13 | CCNCCCCc1ccc2[nH]nc(S(=O)(=O)c3cccc4ccccc34)c2c1 [Example 191] | 140 to 145 °C | 0.01 to 10 nM
14 | NCCOc1ccc2[nH]nc(S(=O)(=O)c3ccccc3)c2c1 (as salt: hydrochloride) [Example 13, 2-(3-Benzenesulfonyl-1H-indazol-5-yloxy)-ethylamine] | > 300 °C | 
15 | CC(C)NCCOc1ccc2[nH]nc(S(=O)(=O)c3ccccc3)c2c1 (as salt: hydrochloride) [Example 6, [2-(3-Benzenesulfonyl-1H-indazol-5-yloxy)-ethyl]-isopropyl-amine] | 275 to 277 °C (dec.) | 
16 | CN(C)CCCCc1ccc2[nH]nc(S(=O)(=O)c3cccc4ccccc34)c2c1 [Example 190] | 232 to 233 °C | 0.01 to 10 nM

Row | Structure (SMILES) | melting point | Ki [1]
17 | O=S(=O)(c1cccc2ccccc12)c1n[nH]c2ccc(CCCCN3CCCC3)cc12 [Example 194] | 238 to 240 °C | 11 to 25 nM
18 | N[C@@H]1CCN(Cc2ccc3[nH]nc(S(=O)(=O)c4cccc5ccccc45)c3c2)C1 (as salt: HCl) [Example 201] | > 200 °C | 
19 | O=S(=O)(c1ccccc1)c1n[nH]c2ccc(OCCN3CCCCC3)cc12 (as salt: hydrochloride) [Example 3, 3-Benzenesulfonyl-5-(2-piperidin-1-yl-ethoxy)-1H-indazole] | 249 to 250 °C | 
20 | O=S(=O)(c1ccccc1)c1n[nH]c2ccc(OCCNC3CCCC3)cc12 (as salt: hydrochloride) [Example 9, 3-Benzenesulfonyl-5-(2-cyclopentyl-1-yl-ethoxy)-1H-indazole] | 255 to 258 °C (dec.) | 
21 | CCNCCOc1ccc2c(c1)c(S(=O)(=O)c1cccc3ccccc13)nn2C (as salt: hydrochloride) [Example 44, Ethyl-{2-[1-methyl-3-(naphthalene-1-sulfonyl)-1H-indazol-5-yloxy]-ethyl}-amine] | 276 to 277 °C (dec.) | 
22 | CC1CN(Cc2ccc3[nH]nc(S(=O)(=O)c4cccc5ccccc45)c3c2)CC(C)N1 (stereo not shown) (as salt: HCl) [Example 198] | > 200 °C | 
23 | C[C@@H]1CN(Cc2ccc3[nH]nc(S(=O)(=O)c4cccc5ccccc45)c3c2)CCN1 (as salt: HCl) [Example 200] | 179 to 181 °C | 
24 | O=S(=O)(c1cccc2ccccc12)c1n[nH]c2ccc(CN[C@H]3CCNC3)cc12 (as salt: hydrochloride) [Example 154, (3S)—N-{([3-(1-Naphthylsulfonyl)-1H-indazol-5-yl]methyl}pyrrolidin-3-amine Hydrochloride] | > 200 °C | 
25 | CN(C)CCCc1ccc2[nH]nc(S(=O)(=O)c3cccc4ccccc34)c2c1 (as salt: hydrochloride) [Example 182, N,N-Dimethyl-N-{3-[3-(naphthylsulfonyl)-1H-indazol-5-yl]propyl}amine hydrochloride] | 247 to 248 °C | 
26 | CC(C)NCCOc1ccc2c(c1)c(S(=O)(=O)c1cccc3ccccc13)nn2Cc1cccc(Cl)c1 (as salt: hydrochloride) [Example 57, {2-[1-(3-Chloro-benzyl)-3-(naphthalene-1-sulfonyl)-1H-indazol-5-yloxy]-ethyl}-isopropyl-amine] | 206 to 208 °C | 
27 | CC(C)NCCCc1ccc2[nH]nc(S(=O)(=O)c3ccccc3)c2c1 (as salt: trifluoroacetate) [Example 179, N-Isopropyl-N-{3-[3-(phenylsulfonyl)-1H-indazol-5-yl]propyl}amine trifluoroacetate] | 169 to 171 °C | 
28 | C[C@H]1CN(Cc2ccc3[nH]nc(S(=O)(=O)c4cccc5ccccc45)c3c2)CCN1 (as salt: HCl) [Example 199] | 178 to 181 °C | 
29 | NCCNCc1ccc2[nH]nc(S(=O)(=O)c3cccc4ccccc34)c2c1 (as salt: hydrochloride) [Example 155, N{[3-(1-Naphthylsulfonyl)-1H-indazol-5yl]methyl}ethane-1.2-diamine] | > 200 °C | 
30 | CN1CCN(Cc2ccc3[nH]nc(S(=O)(=O)c4cccc5ccccc45)c3c2)CC1 (as salt: HCl) [Example 196] | > 200 °C | 
31 | CN(C)CCc1cccc2c(S(=O)(=O)c3ccccc3)n[nH]c12 (as salt: hydrochloride) [Example 171, N,N-Dimethyl-N-{2-[3-(phenylsulfonyl)-1H-indazol-7-yl]ethyl}amine hydrochloride] | 76 to 80 °C | 
32 | CCCCNCCOc1ccc2[nH]nc(S(=O)(=O)c3ccccc3)c2c1 (as salt: hydrochloride) [Example 7, [2-(3-Benzenesulfonyl-1H-indazol-5-yloxy)-ethyl]-butyl-amine] | 271 to 273 °C (dec.) | 
